According to patent US20080113983A1, “Nicotinic Acetylcholine Receptor Ligands” (AstraZeneca AB, priority 2004, published 2008):

Target: T1, α4 nAChR receptor (Rattus norvegicus, UniProt P09483+P12390)
T1 construct: from tissue; host or cells: rat cortical brain membranes
Assay: Radioligand ([125I]-IPH) binding to rat cortical membranes
Settings: saturation curves fitted to a one site model
Method: Assay for affinity at an α4 nAChR receptor by measuring the binding of [^3H]-(-)-nicotine binding to rat cortical membranes.
A procedure modified from Martino-Barrows and Kellar (Mol Pharm (1987) 31:169-174) may be used. Rat cortical brain membranes are prepared as described in the [^125I]α-BTX binding assay, except that a 500-12000×g membrane fraction is prepared. Membranes (30-150 μg) are incubated with 30-100 pM of the epibatidine analog [^125I]-IPH ((+/−)-exo-2-(2-iodo-5-pyridyl)-7-azabicyclo-[2,2,1]heptane) together with test compound in HB for 1 hour at room temperature with gentle shaking. Membranes may be recovered as described for the [^125I]α-BTX binding assay. Non-specific binding may be determined by 100 μM carbachol. Typically specific binding is about 84%.
Analysis of Binding Data Obtained in α7 nAChR or α4 nAChR receptor assays
IC50 values and pseudo Hill coefficients (nH) may be calculated using the non-linear curve fitting program ALLFIT (DeLean A, Munson P J and Rodbard D (1977) Am. J. Physiol., 235:E97-E102). […] Ki values may be estimated using the general Cheng-Prusoff equation:
Ki=[IC50 ]/((2+([ligand]/KD)^n)^1/n−1)
where a value of n=1 is used whenever nH<1.5 and a value of n=2 is used when nH>1.5. To account for variability, assays may be performed in triplicate and variability will typically be ±5%. Ki values may be determined using six to 11 drug concentrations.

T1 sequence (P12390 25-500): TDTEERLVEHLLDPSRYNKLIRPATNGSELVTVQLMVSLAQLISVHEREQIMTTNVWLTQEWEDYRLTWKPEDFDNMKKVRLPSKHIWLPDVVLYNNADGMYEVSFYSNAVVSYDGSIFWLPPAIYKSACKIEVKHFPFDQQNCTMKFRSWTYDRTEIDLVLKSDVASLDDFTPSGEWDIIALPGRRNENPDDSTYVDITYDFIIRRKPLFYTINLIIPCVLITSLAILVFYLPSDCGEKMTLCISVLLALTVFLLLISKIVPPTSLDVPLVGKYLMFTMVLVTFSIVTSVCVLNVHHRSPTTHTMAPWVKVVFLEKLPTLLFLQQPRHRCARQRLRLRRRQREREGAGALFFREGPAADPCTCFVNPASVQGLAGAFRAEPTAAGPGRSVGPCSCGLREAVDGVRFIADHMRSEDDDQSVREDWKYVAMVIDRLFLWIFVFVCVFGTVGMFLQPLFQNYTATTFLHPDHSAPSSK
T1 sequence (P09483 31-630): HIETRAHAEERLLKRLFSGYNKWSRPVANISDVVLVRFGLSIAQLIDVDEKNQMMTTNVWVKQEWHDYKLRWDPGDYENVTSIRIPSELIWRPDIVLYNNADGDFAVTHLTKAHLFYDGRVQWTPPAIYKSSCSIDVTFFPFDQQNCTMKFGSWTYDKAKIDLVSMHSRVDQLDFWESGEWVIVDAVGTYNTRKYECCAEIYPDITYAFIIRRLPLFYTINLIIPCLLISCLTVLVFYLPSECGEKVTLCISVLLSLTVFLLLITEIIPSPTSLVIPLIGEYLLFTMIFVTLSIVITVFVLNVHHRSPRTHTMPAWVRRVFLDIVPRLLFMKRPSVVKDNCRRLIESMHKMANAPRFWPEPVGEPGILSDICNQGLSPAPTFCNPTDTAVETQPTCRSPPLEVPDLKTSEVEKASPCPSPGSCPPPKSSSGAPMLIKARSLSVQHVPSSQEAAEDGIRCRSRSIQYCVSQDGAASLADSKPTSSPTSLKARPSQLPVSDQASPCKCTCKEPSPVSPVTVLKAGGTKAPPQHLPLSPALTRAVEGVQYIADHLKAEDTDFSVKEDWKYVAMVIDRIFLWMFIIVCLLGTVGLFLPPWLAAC

For `Ic1ccc(C2CC3CCC2N3)cn1` (racemic) [[^125I]-IPH, (+/−)-exo-2-(2-iodo-5-pyridyl)-7-azabicyclo-[2,2,1]heptane], the Kd was 0.064 nM.
